Measured values published in ChEMBL document CHEMBL4400580, “Expanded Structure-Activity Studies of Lipoxazolidinone Antibiotics” (ACS Med Chem Lett, 2019).
Values after ≈ are worked out from the molar mass of the structure shown.

Tests used:
Staphylococcus aureus [1] = assay: Antimicrobial activity against methicillin-resistant Staphylococcus aureus ATCC 33591 measured after 16 hrs by broth microdilution method; type: functional; conditions: ATCC 33591, 16 h
Staphylococcus aureus [2] = assay: Antimicrobial activity against methicillin-sensitive Staphylococcus aureus ATCC 29213 measured after 16 hrs by broth microdilution method; type: functional; conditions: ATCC 29213, 16 h
Acinetobacter baumannii = assay: Antimicrobial activity against Acinetobacter baumannii ATCC 19606 measured after 16 hrs by broth microdilution method; type: functional; conditions: ATCC 19606 = CIP 70.34 = JCM 6841, 16 h
Escherichia coli [3] = assay: Antimicrobial activity against Escherichia coli SQ110 LPTD measured after 16 hrs by broth microdilution method; type: functional
Escherichia coli [4] = assay: Antimicrobial activity against Escherichia coli SQ110 measured after 16 hrs by broth microdilution method; type: functional; conditions: SQ110, 16 h
Escherichia coli [5] = assay: Antimicrobial activity against Escherichia coli SQ110 DTC measured after 16 hrs by broth microdilution method; type: functional
[6] = Hemolysis in red blood cells (unknown origin) up to 40 uM; type: ADME, cell-based, Erythrocyte; conditions: read-out: Activity
A549 = assay: Cytotoxicity against human A549 cells assessed as reduction in cell viability measured after 72 hrs by ATP-liteM luciferin-luciferase assay; type: cell-based; conditions: A549, 72 h

| Compound | MIC (Staphylococcus aureus [1]) [µg/mL] | MIC (Staphylococcus aureus [2]) [µg/mL] | MIC (Acinetobacter baumannii) [µg/mL] | MIC (Escherichia coli [3]) [µg/mL] | MIC (Escherichia coli [4]) [µg/mL] | MIC (Escherichia coli [5]) [µg/mL] | hemolysis [6] [%] | IC50 (A549) [µg/mL] |
| --- | --- | --- | --- | --- | --- | --- | --- | --- |
| CC(C)[C@@H]1O/C(=C/C(=O)Cc2cc(F)c(F)c(F)c2)NC1=O | 4 (≈ 12.8 µM) | 8 (≈ 25.5 µM) |  |  |  |  |  |  |
| Cc1ccc(C)c(CC(=O)/C=C2\NC(=O)[C@H](C(C)C)O2)c1 | 8 (≈ 27.8 µM) | 16 (≈ 55.7 µM) |  |  |  |  |  |  |
| CC(C)[C@@H]1O/C(=C/C(=O)CCc2ccccc2)NC1=O | 4 (≈ 14.6 µM) | 8 (≈ 29.3 µM) | 128 (≈ 468 µM) |  |  |  |  |  |
| CC(C)[C@@H]1O/C(=C/C(=O)Cc2ccc(C(F)(F)F)cc2)NC1=O | 2 (≈ 6.11 µM) | 4 (≈ 12.2 µM) | 128 (≈ 391 µM) |  |  |  |  |  |
| CC(=O)NC[C@H]1CN(c2ccc(N3CCOCC3)c(F)c2)C(=O)O1 [LINEZOLID] | 0.5 (≈ 1.48 µM) | 1 (≈ 2.96 µM) | 64 (≈ 190 µM) | 32 (≈ 94.9 µM) | > 128 | 2 (≈ 5.93 µM) |  |  |
| CC(C)[C@@H]1O/C(=C/C(=O)Cc2ccc(Br)cc2)NC1=O | 0.5 (≈ 1.48 µM) | 1 (≈ 2.96 µM) | 64 (≈ 189 µM) |  |  |  |  |  |
| CC(C)[C@@H]1O/C(=C/C(=O)CCc2ccc(Br)cc2)NC1=O | 1 (≈ 2.84 µM) | 2 (≈ 5.68 µM) | 128 (≈ 363 µM) |  |  |  |  |  |
| CC(C)[C@@H]1O/C(=C/C(=O)Cc2cc(F)ccc2F)NC1=O | 8 (≈ 27.1 µM) | 16 (≈ 54.2 µM) |  |  |  |  |  |  |
| CC(C)[C@@H]1O/C(=C/C(=O)CCc2ccc(C(F)(F)F)cc2)NC1=O | 0.5 (≈ 1.46 µM) | 2 (≈ 5.86 µM) |  |  |  |  |  |  |
| CC(C)[C@@H]1O/C(=C/C(=O)Cc2ccc([N+](=O)[O-])cc2)NC1=O | 8 (≈ 26.3 µM) | 64 (≈ 210 µM) |  |  |  |  |  |  |
| CC(C)[C@@H]1O/C(=C/C(=O)CCc2ccc(Cl)cc2)NC1=O | 0.5 (≈ 1.62 µM) | 2 (≈ 6.5 µM) | 128 (≈ 416 µM) |  |  |  |  |  |
| CC(C)[C@@H]1O/C(=C/C(=O)Cc2ccc(F)cc2)NC1=O | 2 (≈ 7.21 µM) | 4 (≈ 14.4 µM) |  |  |  |  |  |  |
| COc1ccc(OC)c(CC(=O)/C=C2\NC(=O)[C@H](C(C)C)O2)c1 | 4 (≈ 12.5 µM) | 16 (≈ 50.1 µM) |  |  |  |  |  |  |
| CC(C)[C@@H]1O/C(=C/C(=O)Cc2ccc(-c3ccccc3)cc2)NC1=O | 0.125 (≈ 0.373 µM) | 0.25 (≈ 0.745 µM) | > 128 | 32 (≈ 95.4 µM) | > 128 | 0.25 (≈ 0.745 µM) |  |  |
| CC(C)[C@@H]1O/C(=C/C(=O)CCc2ccc(F)cc2)NC1=O | 8 (≈ 27.5 µM) | 16 (≈ 54.9 µM) |  |  |  |  |  |  |
| CCCCCCCCCC(=O)/C=C1\NC(=O)[C@H](C(C)C)O1 |  | 0.5 (≈ 1.69 µM) |  | 32 (≈ 108 µM) | > 128 | 1 to 2 (≈ 3.38 to 6.77 µM) | < 1 | 10 (≈ 33.8 µM) |
| CC(C)[C@@H]1O/C(=C/C(=O)Cc2ccc(Cl)cc2)NC1=O | 0.5 (≈ 1.7 µM) | 2 (≈ 6.81 µM) | 64 (≈ 218 µM) |  |  |  |  |  |
| CC(C)[C@@H]1O/C(=C/C(=O)Cc2ccccc2Br)NC1=O | 8 (≈ 23.7 µM) | 16 (≈ 47.3 µM) |  |  |  |  |  |  |
| CC(C)[C@@H]1O/C(=C/C(=O)Cc2ccc(C(C)(C)C)cc2)NC1=O | 2 (≈ 6.34 µM) | 4 (≈ 12.7 µM) |  |  |  |  |  |  |
| CC(C)[C@@H]1O/C(=C/C(=O)Cc2ccccc2)NC1=O | 2 (≈ 7.71 µM) | 4 (≈ 15.4 µM) |  | 32 (≈ 123 µM) | > 128 | 2 (≈ 7.71 µM) |  |  |
| CC(C)[C@@H]1O/C(=C/C(=O)Cc2ccc(N)cc2)NC1=O | 64 (≈ 233 µM) | > 128 |  |  |  |  |  |  |
| CC(C)[C@@H]1O/C(=C/C(=O)Cc2ccc(OC(F)(F)F)cc2)NC1=O | 0.5 (≈ 1.46 µM) | 2 (≈ 5.83 µM) |  | 32 (≈ 93.2 µM) | > 128 | 0.06 (≈ 0.175 µM) | < 1 | 14 (≈ 40.8 µM) |
| CC(C)[C@@H]1O/C(=C/C(=O)CCc2ccc(C(C)(C)C)cc2)NC1=O | 0.25 (≈ 0.759 µM) | 2 (≈ 6.07 µM) |  |  |  |  |  |  |
| CC(C)[C@@H]1O/C(=C/C(=O)Cc2ccc(C#N)cc2)NC1=O | 4 (≈ 14.1 µM) | 8 (≈ 28.1 µM) |  |  |  |  |  |  |
| Cc1ccc(CCC(=O)/C=C2\NC(=O)[C@H](C(C)C)O2)cc1 | 8 (≈ 27.8 µM) | 16 (≈ 55.7 µM) |  |  |  |  |  |  |
| CC(C)[C@@H]1O/C(=C/C(=O)CCCCCc2ccccc2)NC1=O | 2 (≈ 6.34 µM) | 4 (≈ 12.7 µM) | 128 (≈ 406 µM) |  |  |  |  |  |
| COc1ccc(OC)c(CCC(=O)/C=C2\NC(=O)[C@H](C(C)C)O2)c1 | 8 (≈ 24 µM) | 4 (≈ 12 µM) | > 128 |  |  |  |  |  |
| Cc1ccc(CC(=O)/C=C2\NC(=O)[C@H](C(C)C)O2)cc1 | 2 (≈ 7.32 µM) | 4 (≈ 14.6 µM) | 128 (≈ 468 µM) |  |  |  |  |  |
| CC(C)[C@@H]1O/C(=C/C(=O)Cc2cccc(Br)c2)NC1=O | 2 (≈ 5.91 µM) | 16 (≈ 47.3 µM) |  |  |  |  |  |  |
